Data published in ChEMBL document CHEMBL1201862, “PubChem BioAssay data set” (2004).
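Compound exposure: 48 hours, 5 concentrations, 96-well plates. Abbreviation: GI50, concentration required for 50% inhibition of growth.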 Active and inactive are the calls of the source. Rule as the data show it: active = GI50 up to about 1.1 µM and inactive = higher. Where a SMILES comes first, the peptide text is derived from it. The star is where a group is joined. Cbz = O=C(OCc1ccccc1)*

Assays:
Assay in all cases: NCI-60 cell line screen, 48 h
CCRF-CEM = test system: CCRF-CEM
SK-MEL-2 = test system: SK-MEL-2
HOP-62 = test system: HOP-62
TK-10 = test system: TK-10
U-251 = test system: U-251
Hs-578T = test system: Hs-578T
EKVX = test system: EKVX
A498 = test system: A498
PC-3 = test system: PC-3
HCT-116 = test system: HCT-116
SW-620 = test system: SW-620
SR = test system: SR
SK-MEL-5 = test system: SK-MEL-5
SK-OV-3 = test system: SK-OV-3
OVCAR-5 = test system: OVCAR-5
UO-31 = test system: UO-31
A549 = test system: A549
SF-268 = test system: SF-268
UACC-257 = test system: UACC-257
HCC 2998 = test system: HCC 2998

Structure (SMILES)	GI50 (CCRF-CEM)	GI50 (SK-MEL-2)	GI50 (HOP-62)	GI50 (TK-10)	GI50 (U-251)	GI50 (Hs-578T)	GI50 (EKVX)	GI50 (A498)	GI50 (PC-3)	GI50 (HCT-116)	GI50 (SW-620)	GI50 (SR)	GI50 (SK-MEL-5)	GI50 (SK-OV-3)	GI50 (OVCAR-5)	GI50 (UO-31)	GI50 (A549)	GI50 (SF-268)	GI50 (UACC-257)	GI50 (HCC 2998)
Cc1ccc(/C=C2\NC(=S)N(CN3CCCCC3)C2=O)cc1	12.4 µM (inactive)	> 100 µM (inactive)	> 100 µM (inactive)	69.3 µM (inactive)	48.6 µM (inactive)	41.4 µM (inactive)	46.3 µM (inactive)	41.3 µM (inactive)	61.4 µM (inactive)	36.6 µM (inactive)	28.9 µM (inactive)	83.6 µM (inactive)	33.3 µM (inactive)	> 100 µM (inactive)	> 100 µM (inactive)	63.1 µM (inactive)	51.2 µM (inactive)	64 µM (inactive)		
CCOC(=O)CCC(NC(=O)CNC(=O)CNC(=O)C(CCC(=O)OCC)NC(=O)C(CCC(=O)OCC)NC(=O)C(CCC(=O)OCC)NC(=O)OCc1ccccc1)C(=O)NC(CCC(=O)OCC)C(=O)NC(CCC(=O)OCC)C(=O)OCC (stereo not drawn) (Cbz-E(OEt)E(OEt)E(OEt)GGE(OEt)E(OEt)E(OEt)-OEt; configuration not given here)	> 75 µM (inactive)	> 75 µM (inactive)		> 75 µM (inactive)	> 75 µM (inactive)	> 75 µM (inactive)	> 75 µM (inactive)		> 75 µM (inactive)	> 75 µM (inactive)	> 75 µM (inactive)	> 75 µM (inactive)	> 75 µM (inactive)	> 75 µM (inactive)	> 75 µM (inactive)	> 75 µM (inactive)	> 75 µM (inactive)	> 75 µM (inactive)	> 75 µM (inactive)	
Cc1[nH]c(-c2ccccc2)c(-c2ccc(Cl)cc2)c1C(=O)ONC(=O)c1ccccc1	1.75 µM (inactive)	2.9 µM (inactive)	2.07 µM (inactive)	2.81 µM (inactive)	1.78 µM (inactive)	2.26 µM (inactive)	3.07 µM (inactive)	6.24 µM (inactive)	4.94 µM (inactive)	2.11 µM (inactive)	7.26 µM (inactive)		3.41 µM (inactive)	10.5 µM (inactive)	5.07 µM (inactive)	0.113 µM (active)	2.19 µM (inactive)	2.34 µM (inactive)	6.82 µM (inactive)	3.32 µM (inactive)
CSc1nc(Br)nc2c1ncn2C1CC(Oc2ccc(C)cc2)C(COc2ccc(C)cc2)O1 (stereo not drawn)	> 100 µM (inactive)	> 100 µM (inactive)	> 100 µM (inactive)	> 100 µM (inactive)	> 100 µM (inactive)	25.2 µM (inactive)	> 100 µM (inactive)	> 100 µM (inactive)	> 100 µM (inactive)	> 100 µM (inactive)	> 100 µM (inactive)		> 100 µM (inactive)	> 100 µM (inactive)	> 100 µM (inactive)		> 100 µM (inactive)	> 100 µM (inactive)	> 100 µM (inactive)	> 100 µM (inactive)
COC(=O)[C@@H]1CN(C(C)=O)C(=O)N1	> 100 µM (inactive)	> 100 µM (inactive)	> 100 µM (inactive)	> 100 µM (inactive)	> 100 µM (inactive)	> 100 µM (inactive)	> 100 µM (inactive)	> 100 µM (inactive)	> 100 µM (inactive)	> 100 µM (inactive)	> 100 µM (inactive)		> 100 µM (inactive)	> 100 µM (inactive)	> 100 µM (inactive)	> 100 µM (inactive)	> 100 µM (inactive)	> 100 µM (inactive)	> 100 µM (inactive)	> 100 µM (inactive)
N#CCSc1c(-c2ccccc2)c(=O)n(-c2ccccc2)c(=S)n1-c1ccccc1	96.8 µM (inactive)	> 100 µM (inactive)	> 100 µM (inactive)	> 100 µM (inactive)	> 100 µM (inactive)	51.5 µM (inactive)	> 100 µM (inactive)		> 100 µM (inactive)	> 100 µM (inactive)	> 100 µM (inactive)	> 100 µM (inactive)	84.5 µM (inactive)	> 100 µM (inactive)	> 100 µM (inactive)	> 100 µM (inactive)	> 100 µM (inactive)	> 100 µM (inactive)	> 100 µM (inactive)	
O=c1ccn(C2OC(CO)C(O)C2F)c(=O)n1Cc1ccccc1 (stereo not drawn)	> 100 µM (inactive)		> 100 µM (inactive)	> 100 µM (inactive)	> 100 µM (inactive)	> 100 µM (inactive)	> 100 µM (inactive)		> 100 µM (inactive)	> 100 µM (inactive)	> 100 µM (inactive)	> 100 µM (inactive)	> 100 µM (inactive)		> 100 µM (inactive)	> 100 µM (inactive)	> 100 µM (inactive)	> 100 µM (inactive)	> 100 µM (inactive)	
CC(C)CNc1nc(N)nc(O)c1NC=O	> 100 µM (inactive)	> 100 µM (inactive)	> 100 µM (inactive)	> 100 µM (inactive)	> 100 µM (inactive)	> 100 µM (inactive)	> 100 µM (inactive)	> 100 µM (inactive)	> 100 µM (inactive)	> 100 µM (inactive)	> 100 µM (inactive)		> 100 µM (inactive)	> 100 µM (inactive)	> 100 µM (inactive)	> 100 µM (inactive)	> 100 µM (inactive)	> 100 µM (inactive)	> 100 µM (inactive)	> 100 µM (inactive)
OCC(O)C(O)C(O)C(O)c1nc2cc(Cl)ccc2[nH]1 (stereo not drawn)	> 100 µM (inactive)	> 100 µM (inactive)	90.4 µM (inactive)	> 100 µM (inactive)	> 100 µM (inactive)	> 100 µM (inactive)	> 100 µM (inactive)	> 100 µM (inactive)	> 100 µM (inactive)	> 100 µM (inactive)	> 100 µM (inactive)		> 100 µM (inactive)	56.4 µM (inactive)	> 100 µM (inactive)	> 100 µM (inactive)	> 100 µM (inactive)	> 100 µM (inactive)	> 100 µM (inactive)	> 100 µM (inactive)
N=C(N)c1ccc(/N=N\c2c(O)ccc3cc4c(/N=N\c5ccc(C(=N)N)cc5)c(O)ccc4cc23)cc1	37.2 µM (inactive)	> 100 µM (inactive)	45.4 µM (inactive)	> 100 µM (inactive)	51.1 µM (inactive)	> 100 µM (inactive)	> 100 µM (inactive)		> 100 µM (inactive)	50 µM (inactive)	87.1 µM (inactive)	26.6 µM (inactive)	51.6 µM (inactive)	> 100 µM (inactive)	> 100 µM (inactive)	53.1 µM (inactive)	> 100 µM (inactive)	95.3 µM (inactive)	> 100 µM (inactive)	> 100 µM (inactive)
O=c1c2cc(S(=O)(=O)Nc3ccc(Cl)cc3Cl)ccc2ncn1NS(=O)(=O)c1cccc2ccccc12	12.7 µM (inactive)	38.1 µM (inactive)	41.3 µM (inactive)	85.7 µM (inactive)	58.2 µM (inactive)	21.5 µM (inactive)	14.7 µM (inactive)		23.7 µM (inactive)	30.5 µM (inactive)	71.4 µM (inactive)	22.9 µM (inactive)		66.8 µM (inactive)	61.5 µM (inactive)	14.1 µM (inactive)	36.9 µM (inactive)	30.3 µM (inactive)	77.6 µM (inactive)	20 µM (inactive)
NC(=O)c1ccc(NS(=O)(=O)c2ccc(N)cc2)nc1	> 100 µM (inactive)	> 100 µM (inactive)	> 100 µM (inactive)	> 100 µM (inactive)	> 100 µM (inactive)	> 100 µM (inactive)	> 100 µM (inactive)	> 100 µM (inactive)	> 100 µM (inactive)	> 100 µM (inactive)	> 100 µM (inactive)		> 100 µM (inactive)	> 100 µM (inactive)	> 100 µM (inactive)	> 100 µM (inactive)		> 100 µM (inactive)	> 100 µM (inactive)	> 100 µM (inactive)
CCCCC(=C=C1CCCCC1O)C1CCCN1C(=O)OC(C)(C)C (stereo not drawn)	17.6 µM (inactive)	16.2 µM (inactive)	17 µM (inactive)	16.1 µM (inactive)	15.9 µM (inactive)	19.3 µM (inactive)	14.9 µM (inactive)		16.1 µM (inactive)	14.3 µM (inactive)	18.3 µM (inactive)	23.6 µM (inactive)	16.6 µM (inactive)	16.5 µM (inactive)	16 µM (inactive)	21.3 µM (inactive)	14.9 µM (inactive)	17.3 µM (inactive)	15.6 µM (inactive)	22.1 µM (inactive)
CSc1nc(Nc2ccccc2Cl)c2c(N)nn(C)c2n1	> 100 µM (inactive)	> 100 µM (inactive)	27 µM (inactive)	> 100 µM (inactive)	> 100 µM (inactive)	17 µM (inactive)	24.4 µM (inactive)	> 100 µM (inactive)	> 100 µM (inactive)	> 100 µM (inactive)	> 100 µM (inactive)		> 100 µM (inactive)	> 100 µM (inactive)	> 100 µM (inactive)	> 100 µM (inactive)	> 100 µM (inactive)	77.8 µM (inactive)	> 100 µM (inactive)	> 100 µM (inactive)
CC(=O)NC(Cc1c[nH]cn1)C(=O)N1CCCC1C(N)=O (stereo not drawn)	> 100 µM (inactive)		> 100 µM (inactive)	> 100 µM (inactive)	> 100 µM (inactive)	> 100 µM (inactive)	> 100 µM (inactive)		> 100 µM (inactive)	> 100 µM (inactive)	> 100 µM (inactive)	> 100 µM (inactive)	> 100 µM (inactive)	> 100 µM (inactive)	> 100 µM (inactive)	> 100 µM (inactive)	> 100 µM (inactive)	> 100 µM (inactive)		> 100 µM (inactive)
